Data taken from paper PMC7068811 (Frontiers in Immunology, 2020).
Where no end group is shown, it is not given here.

How the values were obtained:
P. yoelii sporozoites = assay: Sporozoite challenge and protection against malaria; format: in vivo, Plasmodium yoelii (17XNL) in BALB/c mice; conditions: AdPyCS 10^9 virus particles IM; 200 μg IP days 1, 3, 5, 7 where treated; challenge day 12; n = 20/group
From the text: Six- to eight-week-old female BALB/c mice were purchased from Taconic (Germantown, NY, USA). All mice were maintained under standard conditions in the Laboratory Animal Research Center of the Rockefeller University, and the protocol was approved by the Institutional Animal Care and Use Committee at the Rockefeller University (Assurance no. A3081-01). A recombinant serotype 5 adenovirus, AdPyCS that expressed Plasmodium yoelii circumsporozoite protein (PyCS) was constructed as previously described ([32]). Wild-type P. yoelii parasites of the 17 XNL strain were maintained in the insect facility of the Division of Parasitology, Department of Microbiology at New York University School of Medicine. […]
Sporozoite challenge experiments were performed as described previously ([32]–[35]). […] Parasitemia was monitored from days 3 to 8 after the sporozoite challenge, by detecting the presence of parasitized red blood cells in thin blood smears to assess for a complete protection against malaria. […]
To evaluate efficacy of the PD1 peptide antagonists as a prophylactic vaccine adjuvant, a rodent malaria model dependent on the generation of protective CD8 T cells was employed. […] On day 12, spleens were harvested and the number of splenic circumsporozoite protein (CS)-specific, IFN-γ-secreting CD8^+ T cells were assessed using an ELISpot assay. […]

mouse PD1 = target: T1, mouse PD1 (Mus musculus, UniProt Q02242); assay: Biacore surface plasmon resonance, binding to mouse PD1; conditions: for KA: 25°C, HEPES pH 7.4; for relative affinity for mouse PD1: compared to WQ20 and HD20 (Table 2)
T1 sequence (Q02242 25-288): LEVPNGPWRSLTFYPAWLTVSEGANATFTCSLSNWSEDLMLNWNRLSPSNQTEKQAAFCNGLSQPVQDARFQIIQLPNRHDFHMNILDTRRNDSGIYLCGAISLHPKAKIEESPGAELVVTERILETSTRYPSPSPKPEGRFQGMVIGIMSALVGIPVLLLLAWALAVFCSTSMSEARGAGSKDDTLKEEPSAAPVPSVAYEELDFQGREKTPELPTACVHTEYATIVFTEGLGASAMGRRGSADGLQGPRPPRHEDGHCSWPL
Description: (§1) Binding experiments were performed on a Biacore T-200 (GE Healthcare Life Sciences, Buckinghamshire, UK) at 25°C. The assay buffer was 10 mM HEPES buffer (pH 7.4), 150 mM NaCl, 3 mM EDTA, and 0.05% P20. The regeneration buffer was 10 mM HEPES buffer (pH 7.4), 150 mM NaCl, 3 mM EDTA, and 0.05% P20. The immobilization buffer was 10 mM sodium acetate at pH 5.0. The flow rate used for immobilizing the ligand was 5 μL/min. The flow rate for kinetics analysis was 30 μL/min. In initial scouting experiments, 12,000 RU of human and 6000 RU of mouse PD1 receptors were directly immobilized on flow cell 2 and flow cell 4 of the CM5 chip using an amine coupling method (EDC/NHS). The unoccupied sites were blocked with 1M ethanol amine. […] Flow cell 1 was kept blank and used for reference subtraction. Binding of an analyte to the ligand was monitored in real-time. Based on the scouting results, full kinetics were performed by immobilizing 10,000 RU of the ligand to a new chip using an analyte concentration of 25 μM, followed by serial dilution to 12.5, 6.25, 3.125, 1.562, 0.78, and 0 μM concentration, or as indicated. Data analysis was performed using software for Biacore 3000, because it has more flexibility in terms of obtaining the binding characteristics with a limited analyte concentration range. […] Chi-square (χ^2) analysis was performed between the actual sensorgram and the sensorgram generated from the BIAnalysis software to determine the accuracy of the analysis. A χ^2 value within 1–2 was considered to be significant (accurate) and below 1 was considered to be highly significant (highly accurate).
(§2) The four peptides identified by phage display were then tested for binding to human and mouse PD1 using the surface plasmon resonance technique.

[1] = test system: human PD1 on Jurkat T cells; assay: Competitive inhibition of PD-L1-Fc binding to Jurkat cells overexpressing human PD1; format: cell-based; conditions: 10 μM peptide, 30 min on ice, PD-L1-Fc 4 μg/mL; flow cytometry MFI normalized to no peptide; duplicates
human PD1 = human PD1 (Homo sapiens, UniProt Q15116); assay: Biacore surface plasmon resonance, binding to human PD1; conditions: for Rmax: maximum binding capacity; for KA: 25°C, HEPES pH 7.4
Chain of human PD1 (Q15116 25-288): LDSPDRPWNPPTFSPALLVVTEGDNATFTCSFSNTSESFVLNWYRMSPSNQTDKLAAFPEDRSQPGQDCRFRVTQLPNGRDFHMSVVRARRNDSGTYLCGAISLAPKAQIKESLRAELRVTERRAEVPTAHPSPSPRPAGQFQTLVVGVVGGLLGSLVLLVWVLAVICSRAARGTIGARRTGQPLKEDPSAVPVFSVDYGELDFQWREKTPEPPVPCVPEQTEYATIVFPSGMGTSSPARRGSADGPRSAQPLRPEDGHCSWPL
Description: as §1, §2

human PBMC = format: cell-based
[2] = mouse PD1, peptide analyte 0–25 μM
[3] = mouse PD1, peptide analyte 0–25 μM, maximum binding capacity
[4] = human PD1, peptide analyte 0–25 μM

Substance	protection against malaria (P. yoelii sporozoites)	KA (mouse PD1; [2])	Rmax (mouse PD1; [3])	reduction in PD-L1-Fc binding [1]	Rmax (human PD1; human PD1, peptide analyte 0–12.5 μM)	relative affinity for mouse PD1 (mouse PD1)	KA (human PD1; [4])	Rmax (human PD1; [4])	Rmax (mouse PD1; mouse PD1, mouse PD-L1 analyte 0–50 (head μM))	Rmax (mouse PD1; mouse PD1, mouse PD-L1 analyte 0–1000 (head μM))	cytokine secretion (IFN-γ, IL-17, IL-6) (human PBMC)
negative control peptide: control peptide is the OVA323−339 peptide (malaria model) (KISQAVHAAHAEINEAG; UniProt P01012 323-339, looked up, fragment)	no protection										
HHHQVYQVRSHWTGMHSGHD [HD20]		4250 M⁻¹	76 RU	< 30%	3.35 RU						
SSYHHFKMPELHFGKNTFHQ [SQ20]		21400 M⁻¹	12.8 RU	> 30%		bound to mouse PD1 with a higher affinity compared to WQ20 and HD20	194000 M⁻¹	4.05 RU			
Mouse PD-L1: mouse PD-L1 analyte [reference compound]									259 RU	1.07 × 10^3 RU	
QTRTVPMPKIHHPPWQNVVP [QP20]		18000 M⁻¹	13.4 RU	< 30%		bound to mouse PD1 with a higher affinity compared to WQ20 and HD20	93600 M⁻¹	3.83 RU			With the exception of QP20, the other PD1-binding peptides significantly increased cytokine secretion at 200 μM relative to tetanus alone
